# “And” between values parts separate entries of the source, which are not always exact repeats. Equal values may be shown once. Read-outs that look alike come from different tables or passages of the source.
# Key:
# [1] = target: THNΔ35 (human TH with the first 35 residues deleted) (Homo sapiens, UniProt P07101); experiment: Assay of TH activity and inhibition by DA, deletion mutant THNΔ35; type: biochemical
# Protocol: (§1) The activity of purified TH and truncated forms was assayed at 37 °C[7]. The purified enzymes were kept on ice and diluted with 0.5% (w/v) bovine serum albumin in 20 mM Na-Hepes pH 7, 200 mM NaCl and centrifuged at 10,000 × g for 5 min at 4 °C. […] TH was added to a final concentration of 1 µg/ml (17 nM subunit) and preincubated at 37 °C for 1 min. […] Protein was removed by precipitation at −20 °C for 90 min followed by centrifugation at 20,000 × g for 14 min at 4 °C. The amount of L-Dopa in the supernatant was determined using a 1200 series high performance liquid chromatography (HPLC) system (Agilent technologies). The chromatographic separation was obtained using an Agilent Zorbax 300-SCX column with 20 mM HAc pH 3.5, 2% (v/v) propanol as mobile phase at a flow rate of 3 ml/min. The fluorescence detector was set to λex = 280 nm and λem = 314 nm.
# (§2) Statistical analyses were performed with Graphpad Prism software version 8.3.0. For SRCD, DSC and TH activity measurements, three enzyme samples from independent protein purifications were measured and the mean ± SD (standard deviation) was calculated. The homogeneity of variances was confirmed by Brown-Forsythe tests and multiple comparisons were made using one-way analysis of variance (ANOVA) followed by a post hoc HSD Tukey test. […] The individual curves were fitted to a four-parameter logistic curve by the [Inhibitor] vs. response—Variable slope equation (y = min + ((max − min)/(1 + IC50/X)^Hill Slope) in Graphpad and the mean IC50 ± SD reported.
# THNΔ70 = target: T1, THNΔ70 (Homo sapiens, UniProt P07101); experiment: Differential scanning calorimetry (DSC), thermal stability with DA, THNΔ70; type: binding
# T1 construct: His-MBP (TEV site) (N, cleaved yes); made in house
# T1 sequence (P07101 102-528 limits assumed, stated change not applied): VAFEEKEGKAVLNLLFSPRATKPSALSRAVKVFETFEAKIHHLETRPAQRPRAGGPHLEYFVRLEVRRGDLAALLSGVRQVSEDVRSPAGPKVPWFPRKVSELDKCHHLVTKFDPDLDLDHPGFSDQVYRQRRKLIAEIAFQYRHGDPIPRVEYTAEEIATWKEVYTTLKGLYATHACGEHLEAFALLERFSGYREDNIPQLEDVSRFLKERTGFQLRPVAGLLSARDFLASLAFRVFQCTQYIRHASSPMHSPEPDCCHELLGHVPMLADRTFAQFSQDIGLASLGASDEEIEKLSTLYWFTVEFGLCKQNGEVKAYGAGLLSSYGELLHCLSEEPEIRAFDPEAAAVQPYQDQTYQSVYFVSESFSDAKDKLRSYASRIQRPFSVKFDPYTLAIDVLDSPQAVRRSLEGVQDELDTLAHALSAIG
# Protocol: (§3) In all experiments, 9 μM TH in 20 mM Na-Hepes pH 7, 200 mM NaCl was used, with the same buffer as reference, heating from 25 to 75 °C at a scan rate of 200 °C/h.
# [2] = target: TH, THNΔ35, THNΔ43, THNΔ70, THS40p (Homo sapiens, UniProt P07101); conditions: far-UV SRCD, two-fold molar ratio of DA
# TH, THNΔ35, THNΔ43, THNΔ70, THS40p, sequence (P07101 1-497 isoform P07101-3): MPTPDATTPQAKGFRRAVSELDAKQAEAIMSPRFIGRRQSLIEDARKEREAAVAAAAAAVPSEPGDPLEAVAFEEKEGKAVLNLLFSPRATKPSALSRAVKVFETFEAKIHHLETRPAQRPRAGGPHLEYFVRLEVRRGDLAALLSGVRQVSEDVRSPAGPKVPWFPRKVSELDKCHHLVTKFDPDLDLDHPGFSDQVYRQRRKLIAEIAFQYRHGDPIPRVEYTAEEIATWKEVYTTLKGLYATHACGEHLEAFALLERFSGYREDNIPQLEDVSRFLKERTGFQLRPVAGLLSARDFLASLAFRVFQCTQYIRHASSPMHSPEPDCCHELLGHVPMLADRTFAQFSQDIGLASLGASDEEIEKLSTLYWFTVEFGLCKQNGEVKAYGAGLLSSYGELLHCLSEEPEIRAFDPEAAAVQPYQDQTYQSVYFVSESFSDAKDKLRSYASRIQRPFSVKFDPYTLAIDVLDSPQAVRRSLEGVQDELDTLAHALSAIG
# Protocol: SRCD spectra were collected as from 280 to 170 nm (3 scans averaged) at 25 °C on the AU-UV beamline at ASTRID2, part of the Institute for Storage Rings (ISA) facility at the University of Aarhus, Denmark. […] The path length of the cell was confirmed using an interferometry method and found to be 100.1 µm. The protein concentration was measured using Abs280nm prior to the measurements and more accurately by A205nm from the absorption spectra measured simultaneously with the CD spectra, using the respective theoretical extinction coefficients[65]. The A205nm measurements were used in the conversion of raw CD units to ∆ε(M^−1cm^−1) values. Secondary structure content was determined in the 250–180 nm range using the BeStSel algorithm[66].
# [3] = target: THNΔ43 (human TH lacking the N-terminal 43 residues) (Homo sapiens, UniProt P07101); experiment: Assay of TH activity and inhibition by DA, deletion mutant THNΔ43; type: biochemical
# THNΔ43 (human TH lacking the N-terminal 43 residues), sequence (P07101 75-528 limits assumed, stated change not applied): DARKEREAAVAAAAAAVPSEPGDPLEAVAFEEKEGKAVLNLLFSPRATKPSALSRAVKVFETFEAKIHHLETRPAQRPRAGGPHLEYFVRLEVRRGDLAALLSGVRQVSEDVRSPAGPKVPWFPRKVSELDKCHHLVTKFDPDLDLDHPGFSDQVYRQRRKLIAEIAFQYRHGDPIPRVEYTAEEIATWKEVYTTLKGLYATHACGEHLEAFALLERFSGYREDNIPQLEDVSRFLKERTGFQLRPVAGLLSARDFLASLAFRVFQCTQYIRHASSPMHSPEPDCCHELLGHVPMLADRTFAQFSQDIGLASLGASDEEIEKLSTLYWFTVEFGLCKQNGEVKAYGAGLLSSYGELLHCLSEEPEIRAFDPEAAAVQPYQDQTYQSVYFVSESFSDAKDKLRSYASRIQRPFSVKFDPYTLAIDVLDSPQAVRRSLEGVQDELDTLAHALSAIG
# Protocol: as §1, §2
# [4] = target: THS40p (S40 phosphorylated human TH) (Homo sapiens, UniProt P07101); experiment: biochemical
# THS40p (S40 phosphorylated human TH), sequence (P07101 1-497 isoform P07101-3): as the sequence (P07101 1-497 isoform P07101-3) above
# Protocol: TH was phosphorylated on S40 (control without kinase)[3], using the catalytic subunit of cAMP-dependent protein kinase (CatPKA, kind gift from S.O. Døskeland[64]). TH (4 mg/ml) was assayed in 50 mM Na-β-glycerophosphate pH 7.5, 1 mM DTT, 0.1 mM EGTA, 1x protease inhibitor cocktail (without EDTA, Pierce), 0.5 mM ATP, 5 mM MgCl2 and incubated with the catalytic subunit of CatPKA (200 nM, diluted from 20 µM in 60% glycerol, 0.5 mg/ml soya bean trypsin inhibitor) for 30 min at 25 °C. […] After phosphorylation, H89 (Sigma) (5 µM) was added and the samples were exchanged into 20 mM Hepes pH 7.0, 200 mM NaCl.
# as §1
# Statistical analyses were performed with Graphpad Prism software version 8.3.0. For SRCD, DSC and TH activity measurements, three enzyme samples from independent protein purifications were measured and the mean ± SD (standard deviation) was calculated. The homogeneity of variances was confirmed by Brown-Forsythe tests and multiple comparisons were made using one-way analysis of variance (ANOVA) followed by a post hoc HSD Tukey test. […]
# [5] = target: T2, full-length human TH (TH1) (Homo sapiens, UniProt P07101); experiment: biochemical; conditions: for IC50: mean ± SD, n = 3, 37 °C, 50 µM L-Tyr, 200 µM BH4
# T2 sequence (P07101 1-497 isoform P07101-3): as above
# Protocol: as §1, §2
# THNΔ43 = target: T3, THNΔ43 (Homo sapiens, UniProt P07101); experiment: Differential scanning calorimetry (DSC), thermal stability with DA, THNΔ43; type: binding
# T3 construct: His-MBP (TEV site) (N, cleaved yes); made in house
# T3 sequence (P07101 75-528 limits assumed, stated change not applied): as the sequence (P07101 75-528 limits assumed, stated change not applied) above
# Protocol: as §3
# THNΔ35 = target: T4, THNΔ35 (Homo sapiens, UniProt P07101); experiment: Differential scanning calorimetry (DSC), thermal stability with DA, THNΔ35; type: binding
# T4 construct: His-MBP (TEV site) (N, cleaved yes); made in house
# T4 sequence (P07101 67-528 limits assumed, stated change not applied): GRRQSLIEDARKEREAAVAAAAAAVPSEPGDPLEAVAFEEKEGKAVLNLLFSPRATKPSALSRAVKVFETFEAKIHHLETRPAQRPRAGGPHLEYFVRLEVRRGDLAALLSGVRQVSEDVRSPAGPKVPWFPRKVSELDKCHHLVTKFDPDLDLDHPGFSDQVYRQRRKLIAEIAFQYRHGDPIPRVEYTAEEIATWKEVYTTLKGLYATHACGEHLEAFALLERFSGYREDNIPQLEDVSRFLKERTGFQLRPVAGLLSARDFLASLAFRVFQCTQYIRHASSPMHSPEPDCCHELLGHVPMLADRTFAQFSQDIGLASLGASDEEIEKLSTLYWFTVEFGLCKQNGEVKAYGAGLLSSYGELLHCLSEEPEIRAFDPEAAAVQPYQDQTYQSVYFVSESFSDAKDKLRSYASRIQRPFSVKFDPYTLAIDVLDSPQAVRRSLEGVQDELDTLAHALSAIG
# Protocol: as §3
# [6] = target: THNΔ70 (human TH with the entire N-terminal removed) (Homo sapiens, UniProt P07101); experiment: Assay of TH activity and inhibition by DA, deletion mutant THNΔ70; type: biochemical
# THNΔ70 (human TH with the entire N-terminal removed), sequence (P07101 102-528 limits assumed, stated change not applied): as the sequence (P07101 102-528 limits assumed, stated change not applied) above
# Protocol: as §1, §2
# [7] = target: T2, full-length human TH (TH1); experiment: Differential scanning calorimetry (DSC), thermal stability with DA, TH; type: binding
# Protocol: as §3
# [8] = individual samples (source data Sup Table 9)
# THNΔ35 (human TH with the first 35 residues deleted), sequence (P07101 67-528 limits assumed, stated change not applied): as the sequence (P07101 67-528 limits assumed, stated change not applied) above
smiles,measurement,setting,value
"NCCc1ccc(O)c(O)c1 [DA, dopamine]",IC50,"[1]; THNΔ35, mean ± SD, n = 3, 37 °C, 50 µM L-Tyr, 200 µM BH4",0.22 ± 0.02 µM
same,remaining activity at 0.05 µM,"[1]; read-out: Relative TH activity, THNΔ35, 0.05 µM dopamine, relative to mean activity with 0 µM DA, replicates",89.3%
same,remaining activity at 0.1 µM,"[1]; read-out: Relative TH activity, THNΔ35, 0.10 µM dopamine, relative to mean activity with 0 µM DA, replicates",73.8%
same,remaining activity at 0.2 µM,"[1]; read-out: Relative TH activity, THNΔ35, 0.20 µM dopamine, relative to mean activity with 0 µM DA, replicates",56.1%
same,remaining activity at 0.78 µM,"[1]; read-out: Relative TH activity, THNΔ35, […] µM dopamine, relative to mean activity with 0 µM DA, replicates",29.7%
same,remaining activity at 6.25 µM,"[1]; read-out: Relative TH activity, THNΔ35, 6.25 µM dopamine, relative to mean activity with 0 µM DA, replicates",8.14%
same,remaining activity at 25 µM,"[1]; read-out: Relative TH activity, THNΔ35, […] dopamine, relative to mean activity with 0 µM DA, replicates",3.12%
same,Tonset with DA,"THNΔ70; THNΔ70 + two-fold molar ratio of DA, mean ± SD, without DA 45.0 ± 0.5",45.6 ± 0.6 °C
same,Tmax with DA,"THNΔ70; THNΔ70 + two-fold molar ratio of DA, mean ± SD, without DA 56.0 ± 0.1",56.4 ± 0.2 °C
same,"T max, THNΔ70+DA",THNΔ70; [8],56.38 °C and 56.21 °C and 56.6 °C
same,"T onset, THNΔ70+DA",THNΔ70; [8],45.36 °C and 45.19 °C and 46.36 °C
same,Effect of incubation with DA on secondary structure (helix content) of TH,[2],no increase in helix content
same,IC50,"[3]; THNΔ43, mean ± SD, n = 3, 37 °C, 50 µM L-Tyr, 200 µM BH4",18.1 ± 1 µM
same,remaining activity at 0.2 µM,"[3]; read-out: Relative TH activity, THNΔ43, 0.20 µM dopamine, relative to mean activity with 0 µM DA, replicates",105%
same,remaining activity at 6.25 µM,"[3]; read-out: Relative TH activity, THNΔ43, 6.25 µM dopamine, relative to mean activity with 0 µM DA, replicates",73.9%
same,remaining activity at 12.49 µM,"[3]; read-out: Relative TH activity, THNΔ43, […] µM dopamine, relative to mean activity with 0 µM DA, replicates",59.8%
same,remaining activity at 24.98 µM,"[3]; read-out: Relative TH activity, THNΔ43, 24.98 µM dopamine, relative to mean activity with 0 µM DA, replicates",43.9%
same,remaining activity at 49.97 µM,"[3]; read-out: Relative TH activity, THNΔ43, 49.97 µM dopamine, relative to mean activity with 0 µM DA, replicates",28.7%
same,remaining activity at 199.88 µM,"[3]; read-out: Relative TH activity, THNΔ43, 199.88 µM dopamine, relative to mean activity with 0 µM DA, replicates",11.8%
same,remaining activity at 1000 µM,"[4]; 5 min, read-out: Relative TH activity, THS40p, 1000.00 µM dopamine, relative to mean activity with 0 µM DA, replicates",0%
same,IC50,"[4]; Dopamine IC50, THS40p, source data Fig 5f, SEM in a column of its own",12.4 µM
same,IC50,"[4]; THS40p, mean ± SD, n = 3, 37 °C, 50 µM L-Tyr, 200 µM BH4, read-out: IC50 for DA inhibition of TH activity",12.4 ± 2.3 µM
same,IC50,[5]; IC50 for DA inhibition of TH activity,0.49 ± 0.04 µM
same,IC50,[5]; read-out: IC50 for DA inhibition of TH activity,~0.5 µM
same,remaining activity at 0.08 µM,"[5]; read-out: Relative TH activity, TH, 0.08 µM dopamine, relative to mean activity with 0 µM DA, replicates",102%
same,remaining activity at 0.63 µM,"[5]; read-out: Relative TH activity, TH, 0.63 µM dopamine, relative to mean activity with 0 µM DA, replicates",48.2%
same,remaining activity at 5 µM,"[5]; read-out: Relative TH activity, TH, 5.00 µM dopamine, relative to mean activity with 0 µM DA, replicates",10%
same,remaining activity at 10 µM,"[5]; read-out: Relative TH activity, TH, 10.00 µM dopamine, relative to mean activity with 0 µM DA, replicates",6.24%
same,Tonset with DA,"THNΔ43; THNΔ43 + two-fold molar ratio of DA, mean ± SD, without DA 43.3 ± 0.9",43.5 ± 0.5 °C
same,Tmax with DA,"THNΔ43; THNΔ43 + two-fold molar ratio of DA, mean ± SD, without DA 54.3 ± 1.7",56.5 ± 0.4 °C
same,"T max, THNΔ43+DA",THNΔ43; [8],56.94 °C and 56.71 °C and 56.44 °C and 56.11 °C
same,"T onset, THNΔ43+DA",THNΔ43; [8],43.98 °C and 42.91 °C and 43.13 °C and 43.87 °C and 43.53 °C
same,Tonset with DA,"THNΔ35; THNΔ35 + two-fold molar ratio of DA, mean ± SD, without DA 37.5 ± 1.2",39.6 ± 0.3 °C
same,Tmax with DA,"THNΔ35; THNΔ35 + two-fold molar ratio of DA, mean ± SD, without DA 51.7 ± 0.7",54.9 ± 1.0 °C
same,"T max, THNΔ35+DA",THNΔ35; [8],56.43 °C and 54.75 °C and 54.43 °C and 54.1 °C
same,"T onset, THNΔ35+DA",THNΔ35; [8],39.27 °C and 39.93 °C and 39.71 °C and 39.61 °C
same,IC50,"[6]; THNΔ70, mean ± SD, n = 3, 37 °C, 50 µM L-Tyr, 200 µM BH4",19.4 ± 5.6 µM
same,remaining activity at 0.2 µM,"[6]; read-out: Relative TH activity, THNΔ70, 0.20 µM dopamine, relative to mean activity with 0 µM DA, replicates",113%
same,remaining activity at 12.58 µM,"[6]; read-out: Relative TH activity, THNΔ70, […] µM dopamine, relative to mean activity with 0 µM DA, replicates",74.6%
same,remaining activity at 50.31 µM,"[6]; read-out: Relative TH activity, THNΔ70, 50.31 µM dopamine, relative to mean activity with 0 µM DA, replicates",35.7%
same,remaining activity at 201.25 µM,"[6]; read-out: Relative TH activity, THNΔ70, 201.25 µM dopamine, relative to mean activity with 0 µM DA, replicates",13.3%
same,Tonset with DA,"[7]; TH + two-fold molar ratio of DA, mean ± SD, without DA 43.3 ± 0.2",45.2 ± 0.6 °C
same,Tmax with DA,"[7]; TH + two-fold molar ratio of DA, mean ± SD, without DA 54.9 ± 0.4",58.6 ± 0.6 °C
same,"T max, TH+DA",[7]; [8],59.32 °C and 58.94 °C and 58.11 °C and 58.01 °C
same,"T onset, TH+DA",[7]; [8],45.07 °C and 45.48 °C and 44.42 °C and 45.76 °C

# Reference: publication PMC8748767 (Nature Communications, 2022)
